Earlier results in article PMC8273902 (Drug Design, Development and Therapy, 2021).
Like-named read-outs stand apart in the source and are kept apart here.

Settings: humans

SMILES	AUC0-t (100 mg)	Cmax (100 mg)	CL (CL, 50 mg, intravenous)	Food effect: reduction of AUC (systemic exposure) (high-fat meal) [%]	Tmax	Vd/F [L]	t1/2 [h]	AUC0-t (20 mg)	CL/F (20 mg)	Cmax (20 mg)	Dose linearity	Food effect on PK properties	Food effect on PK properties (listed as tadalafil)
CCCc1nn(C)c2c(=O)[nH]c(-c3cc(S(=O)(=O)N4CCN(C)CC4)ccc3OCC)nc12 [Sildenafil, sildenafil]	1685 (100 mg) h·ng/mL	560 (100 mg) ng/mL	41 (CL, 50 mg, intravenous) L/h	11	1 (0.5–2) h	>310	3 to 5	–	–	–	–	–	–
CN1CC(=O)N2[C@H](c3ccc4c(c3)OCO4)c3[nH]c4ccccc4c3C[C@@H]2C1=O [Tadalafil, tadalafil]	–	–	–	–	2 (0.5–6) h	60 to 70	–	8066 (20 mg) h·ng/mL	2.5 (20 mg) L/h	378 (20 mg) ng/mL	Linear	No significant effect	not affected by food
